Source: ChEMBL document CHEMBL5131466, “Discovery and development of labdane-oxindole hybrids as small-molecule inhibitors against chikungunya virus infection” (Eur J Med Chem, 2022)

Legend:
[1] = Cytotoxicity against human HeLa CCL2 cells assessed as reduction in cell viability measured after 24 hrs by Alamar blue assay; type: functional
[2] = Selectivity index, ratio of CC50 for cytotoxicity against human HeLa CCL2 cells to EC50 for antiviral activity against CHIKV 122508 infected in human HeLa CCL2 cells; type: toxicity, cell-based; settings: read-out: Ratio CC50/EC50
Chikungunya virus [3] = test: Antiviral activity against CHIKV 122508 infected in […] BHK-21 cells assessed as reduction in viral titer at MOI of 1 measured after 24 hpi by viral plaque assay; type: functional, organism-based; settings: Chikungunya virus, 122508, BHK-21
Chikungunya virus [4] = test: Antiviral activity against CHIKV 122508 infected in human HeLa CCL2 cells assessed as inhibition of viral replication at MOI of 1 at 100 uM incubated for 24 hpi by viral plaque assay; type: functional; parameters: unit not given here; settings: time 24 hrs
Chikungunya virus [5] = test: Antiviral activity against CHIKV 122508 infected in human HeLa CCL2 cells assessed as inhibition of viral replication at MOI of 1 at 10 uM incubated for 24 hpi by viral plaque assay; type: functional; parameters: unit not given here; settings: time 24 hrs
Chikungunya virus [6] = test: Antiviral activity against CHIKV 122508 infected in human HeLa CCL2 cells assessed as inhibition of viral replication at MOI of 1 at 80 uM incubated for 24 hpi by viral plaque assay; type: functional; parameters: unit not given here; settings: time 24 hrs

Row | Compound | CC50 [1] | selectivity ratio [2] | EC50 (Chikungunya virus [3]) | Activity (Chikungunya virus [4]) | Activity (Chikungunya virus [5]) | Activity (Chikungunya virus [6])
1 | C=C1CC[C@@H]2[C@](C)(CO)[C@H](O)CC[C@@]2(C)[C@@H]1C/C=C1\C(=O)Nc2ccccc21 | > 100 µM | > 17 | 5.85 µM |  |  | 
2 | CC1=CC[C@H]2C(C)(C)CCC[C@]2(C)[C@H]1C/C=C1/C(=O)Nc2ccccc21 | 18.6 µM | 5.8 | 3.22 µM |  |  | 
3 | C=C1CC[C@H]2C(C)(C)CCC[C@]2(C)[C@H]1C/C=C1/C(=O)Nc2c1cccc2C(F)(F)F | > 100 µM | > 61 | 1.64 µM |  |  | 
4 | C=C1[C@H](O)C[C@H]2C(C)(C)CCC[C@]2(C)[C@H]1C/C=C1/C(=O)Nc2ccccc21 | 15 µM | 12 | 1.29 µM |  |  | 
5 | C=C1CC[C@H]2C(C)(C)CCC[C@]2(C)[C@H]1C/C=C1\C(=O)Nc2ccccc21 | > 100 µM | > 14 | 7.23 µM |  |  | 
6 | C=C1CC[C@H]2C(C)(C)CCC[C@]2(C)[C@H]1C/C=C1\C(=O)Nc2c(Cl)cc(F)cc21 | > 100 µM | > 1350 | 0.07 µM | 2.6 |  | 
7 | C=C1CC[C@H]2C(C)(C)CCC[C@]2(C)[C@H]1C/C=C1/C(=O)Nc2ccc(Cl)cc21 | 36.1 µM | 27 | 1.3 µM |  |  | 
8 | C=C1CC[C@H]2C(C)(C)CCC[C@]2(C)[C@H]1C/C=C1\C(=O)Nc2c(OC)cccc21 | 23.4 µM | 780 | 0.03 µM |  | 1.5 | 
9 | C=C1CC[C@H]2C(C)(C)CCC[C@]2(C)[C@H]1C/C=C1\C(=O)Nc2ccc(C(F)(F)F)cc21 | > 16.2 µM | > 6.1 | 2.63 µM |  |  | 
10 | C=C1CC[C@H]2C(C)(C)CCC[C@]2(C)[C@H]1C/C=C1/C(=O)Nc2c(C)cccc21 | 142 µM | 230 | 0.62 µM |  |  | 1.3
11 | C=C1CC[C@H]2C(C)(C)CCC[C@]2(C)[C@H]1C/C=C1\C(=O)Nc2cc(C(F)(F)F)ccc21 | 52.8 µM | 17 | 3.07 µM |  |  | 
12 | C=C1CC[C@H]2C(C)(C)CCC[C@]2(C)[C@H]1C/C=C1\C(=O)Nc2cc(Cl)ccc21 | 15.6 µM |  |  |  |  | 
13 | C=C1CC[C@H]2C(C)(C)CCC[C@]2(C)[C@H]1C/C=C1\C(=O)Nc2c(Br)cccc21 | > 100 µM | > 90 | 1.12 µM | 2.3 |  | 
14 | C=C1CC[C@H]2C(C)(C)CCC[C@]2(C)[C@H]1C/C=C1/C(=O)Nc2cc(Cl)ccc21 | 5.7 µM |  |  |  |  | 
15 | C=C1CC[C@H]2C(C)(C)CCC[C@]2(C)[C@H]1C/C=C1\C(=O)Nc2cccc(Br)c21 | 27.1 µM | 62 | 0.44 µM |  |  | 
16 | C=C1CC[C@H]2C(C)(C)CCC[C@]2(C)[C@H]1C/C=C1\C(=O)Nc2ccc(F)cc21 | 15.7 µM | 2.4 | 6.62 µM |  |  | 
17 | C=C1CC[C@@H]2[C@](C)(CO)[C@H](O)CC[C@@]2(C)[C@@H]1C/C=C1\SC(=S)NC1=O | > 100 µM |  |  |  |  | 
18 | C=C1CC[C@@H]2[C@](C)(CO)[C@H](O)CC[C@@]2(C)[C@@H]1CCC1C(=O)Nc2ccccc21 (some centres not stated) | > 100 µM |  |  |  |  | 
19 | C=C1CC[C@H]2C(C)(C)CCC[C@]2(C)[C@H]1C/C=C1/C(=O)Nc2c(OC)cccc21 | 90.2 µM | 602 | 0.15 µM |  |  | 2.6
20 | C=C1CC[C@H]2C(C)(C)CCC[C@]2(C)[C@H]1C/C=C1/C(=O)Nc2ccccc21 | 41.6 µM | 15 | 2.8 µM |  |  | 
21 | C=C1CC[C@H]2C(C)(C)CCC[C@]2(C)[C@H]1C/C=C1\C(=O)Nc2cc(F)ccc21 | 14.2 µM | 67 | 0.21 µM |  |  | 
22 | C=C1CC[C@H]2C(C)(C)CCC[C@]2(C)[C@H]1C/C=C1/C(=O)Nc2cc(Br)ccc21 | 8.3 µM |  |  |  |  | 
23 | C=C1CC[C@H]2C(C)(C)CCC[C@]2(C)[C@H]1C/C=C1/C(=O)Nc2ccc(C)cc21 | 15.2 µM | 758 | 0.02 µM |  | 3.7 | 
24 | C=C1CC[C@H]2C(C)(C)CCC[C@]2(C)[C@H]1C/C=C1/C(=O)Nc2c(Cl)cc(F)cc21 | 134 µM | 1680 | 0.08 µM |  |  | 2.7
25 | C=C1[C@H](O)C[C@H]2C(C)(C)CCC[C@]2(C)[C@H]1C/C=C1\C(=O)Nc2c(Cl)cccc21 | 13.4 µM | 6700 | 0.002 µM |  | 2.1 | 
26 | CC1=CC[C@H]2C(C)(C)CCC[C@]2(C)[C@H]1C/C=C1/C(=O)Nc2c(Cl)cccc21 | > 100 µM | 1.5 | 6.56 µM |  |  | 

Row | Compound | CC50 [1] | selectivity ratio [2] | EC50 (Chikungunya virus [3]) | Activity (Chikungunya virus [4]) | Activity (Chikungunya virus [5]) | Activity (Chikungunya virus [6])
27 | C=C1CC[C@H]2C(C)(C)CCC[C@]2(C)[C@H]1C/C=C1\C(=O)Nc2cccc(C)c21 | 49.9 µM | 69 | 0.72 µM |  |  | 
28 | C=C1CC[C@H]2C(C)(C)CCC[C@]2(C)[C@H]1C/C=C1/C(=O)Nc2cc(C(F)(F)F)ccc21 | 77.2 µM | 10 | 7.41 µM |  |  | 
29 | C=C1CC[C@H]2C(C)(C)CCC[C@]2(C)[C@H]1C/C=C1\C(=O)Nc2cccc(Cl)c21 | 37.2 µM | 6.8 | 5.4 µM |  |  | 
30 | C=C1CC[C@H]2C(C)(C)CCC[C@]2(C)[C@H]1C/C=C1\C(=O)Nc2c(F)cccc21 | 26.9 µM | 336 | 0.08 µM |  | 2 | 
31 | C=C1CC[C@@H]2[C@](C)(CO)[C@H](O)CC[C@@]2(C)[C@@H]1C/C=C1/C(=O)N(C(C)=O)c2ccccc21 | > 100 µM |  |  |  |  | 
32 | C=C1CC[C@@H]2[C@](C)(COC(C)=O)[C@H](OC(C)=O)CC[C@@]2(C)[C@@H]1C/C=C1/C(=O)Nc2ccccc21 | > 100 µM | > 14 | 7.4 µM |  |  | 
33 | C=C1CC[C@H]2C(C)(C)CCC[C@]2(C)[C@H]1C/C=C1\C(=O)Nc2c(Cl)cccc21 | 59.7 µM | 5.7 | 10.5 µM |  |  | 
34 | C=C1CC[C@H]2C(C)(C)CCC[C@]2(C)[C@H]1C/C=C1/C(=O)Nc2cc(F)ccc21 | 9 µM | 20 | 0.46 µM |  |  | 
35 | C=C1CC[C@@H]2[C@](C)(CO)[C@H](O)CC[C@@]2(C)[C@@H]1C/C=C1\C(=O)N(C(C)=O)c2ccccc21 | > 100 µM |  |  |  |  | 
36 | C=C1CC[C@@H]2[C@](C)(COC(C)=O)[C@H](OC(C)=O)CC[C@@]2(C)[C@@H]1C/C=C1\C(=O)Nc2ccccc21 | > 100 µM | > 12 | 8.3 µM |  |  | 
37 | C=C1CC[C@H]2C(C)(C)CCC[C@]2(C)[C@H]1C/C=C1\C(=O)Nc2cc(C)ccc21 | 37.2 µM | 3.2 | 11.6 µM |  |  | 
38 | C=C1CC[C@H]2C(C)(C)CCC[C@]2(C)[C@H]1C/C=C1\C(=O)NC(=O)c2ccccc21 | > 100 µM | > 347 | 0.29 µM | 3.8 |  | 
39 | C=C1CC[C@@H]2[C@](C)(CO)[C@H](O)CC[C@@]2(C)[C@@H]1C/C=C1\C(=O)N(C)c2ccccc21 | > 100 µM |  |  |  |  | 
40 | C=C1CC[C@H]2C(C)(C)CCC[C@]2(C)[C@H]1C/C=C1\C(=O)Nc2ccc(Br)cc21 | 20.6 µM | 11 | 1.8 µM |  |  | 
41 | C=C1[C@H](O)C[C@H]2C(C)(C)CCC[C@]2(C)[C@H]1C/C=C1\C(=O)Nc2ccccc21 | 20 µM | 14 | 1.41 µM |  |  | 
42 | C=C1CC[C@H]2C(C)(C)CCC[C@]2(C)[C@H]1C/C=C1/C(=O)Nc2ccc(C(F)(F)F)cc21 | 6.66 µM |  |  |  |  | 
43 | C=C1CC[C@H]2C(C)(C)CCC[C@]2(C)[C@H]1C/C=C1/C(=O)NC(=O)c2ccccc21 | 50.5 µM | 15 | 3.46 µM |  |  | 
44 | CC1=CC[C@H]2C(C)(C)CCC[C@]2(C)[C@H]1C/C=C1\C(=O)Nc2ccccc21 | 17 µM | 3 | 5.69 µM |  |  | 
45 | C=C1CC[C@H]2C(C)(C)CCC[C@]2(C)[C@H]1C/C=C1/C(=O)Nc2c(Br)cccc21 | > 100 µM | > 79 | 1.27 µM |  |  | 
46 | C=C1CC[C@H]2C(C)(C)CCC[C@]2(C)[C@H]1C/C=C1\C(=O)Nc2c(C)cccc21 | > 100 µM | > 667 | 0.15 µM | 2.8 |  | 
47 | C=C1CC[C@H]2C(C)(C)CCC[C@]2(C)[C@H]1C/C=C1\C(=O)Nc2ccc(Cl)cc21 | 18.3 µM | 4.5 | 4.1 µM |  |  | 
48 | C=C1CC[C@@H]2[C@](C)(CO)[C@H](O)CC[C@@]2(C)[C@@H]1C/C=C1/C(=O)N(C)c2ccccc21 | > 100 µM |  |  |  |  | 
49 | C=C1CC[C@H]2C(C)(C)CCC[C@]2(C)[C@H]1C/C=C1\C(=O)Nc2cc(Br)ccc21 | 19.6 µM | 2.6 | 7.5 µM |  |  | 
50 | C=C1CC[C@H]2C(C)(C)CCC[C@]2(C)[C@H]1C/C=C1/C(=O)Nc2ccc(Br)cc21 | 77.2 µM | 10 | 7.4 µM |  |  | 
51 | C=C1CC[C@H]2C(C)(C)CCC[C@]2(C)[C@H]1C/C=C1\C(=O)Nc2c1cccc2C(F)(F)F | > 100 µM | > 11 | 8.77 µM |  |  | 
52 | CC1=CC[C@H]2C(C)(C)CCC[C@]2(C)[C@H]1C/C=C1\C(=O)Nc2c(Cl)cccc21 | 194 µM | 21 | 9.35 µM |  |  | 
